For twelve compounds, IC50 results are on record in US8809372B2, “Pyridine derivatives” (Endo Pharmaceuticals, Inc., priority 2011, dated 2014).

For this assay, the target named is T1, rat CYP17 (rat testicular microsomes) (Rattus norvegicus, UniProt P11715).
T1 construct: Rat testis tissue was collected and disrupted with 30 strokes of a glass homogenizer; from tissue; host or cells: rat testis (microsomes)
T1 sequence (P11715 1-507): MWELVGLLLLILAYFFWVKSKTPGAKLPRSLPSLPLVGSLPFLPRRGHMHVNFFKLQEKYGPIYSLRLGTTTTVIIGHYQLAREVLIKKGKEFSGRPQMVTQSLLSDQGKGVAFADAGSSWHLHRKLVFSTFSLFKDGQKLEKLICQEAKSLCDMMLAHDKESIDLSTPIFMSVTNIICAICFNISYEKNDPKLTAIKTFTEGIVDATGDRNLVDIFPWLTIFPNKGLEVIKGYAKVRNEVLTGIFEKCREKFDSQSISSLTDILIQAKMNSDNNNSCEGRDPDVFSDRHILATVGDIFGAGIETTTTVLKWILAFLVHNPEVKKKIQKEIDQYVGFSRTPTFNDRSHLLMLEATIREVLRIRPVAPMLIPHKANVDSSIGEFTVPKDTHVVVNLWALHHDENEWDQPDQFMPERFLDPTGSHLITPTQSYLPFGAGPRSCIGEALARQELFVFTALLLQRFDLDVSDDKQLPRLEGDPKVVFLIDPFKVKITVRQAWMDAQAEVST
Nature of the assay: CYP17 inhibition assay in rat testicular microsomes. In kind it is biochemical. In a few lines:
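Rat testicular microsomes (150–160 μg) or yeast microsomes expressing human CYP17 (1.7 pmol) react with ³H-17α-hydroxypregnenolone (1 μCi/reaction) and 325 μM NADPH in potassium phosphate buffer, pH 7.4. Compound is pre-incubated with substrate for 15 min, then the reaction runs 60 min at 37 °C. After chloroform extraction and charcoal treatment, aqueous radioactivity is measured by scintillation counting.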

What is called IC50 is the point on the concentration scale where inhibition reaches its midpoint. A higher IC50 goes with weaker potency in that assay. As to `CC(O)(c1ccncc1)c1ncc(-c2ccc(F)cc2)s1` (stereo not drawn) [Example 14, 1-(5-(4-Fluorophenyl)thiazol-2-yl)-1-(pyridin-4-yl)ethanol], the IC50 is below 50 nM. The result for `Cn1cc(-c2ccc(C(C)(O)c3ccncc3)s2)ccc1=O` (single isomer, unassigned; (-)) [Example 17, (−)-5-(5-(1-hydroxy-1-(pyridin-4-yl)ethyl)thiophen-2-yl)-1-methylpyridin-2(1H)-one] reads below 50 nM; that for `Cn1cc(-c2ccc(C(C)(O)c3ccncc3)s2)ccc1=O` (stereo not drawn) [Example 15, 5-(5-(1-Hydroxy-1-(pyridin-4-yl)ethyl)thiophen-2-yl)-1-methyl-pyridin-2(1H)-one], below 50 nM; that for `COc1ccc(-c2ccc(C(C)(O)c3ccncc3)nc2)cc1` (single isomer, unassigned) [Example 3, 1-(5-(4-methoxyphenyl)-pyridin-2-yl)-1-(pyridin-4-yl)ethanol], 50 to 200 nM.

`CC(O)(c1ccncc1)c1cnc(-c2ccc(F)cc2)s1` (single isomer, unassigned) [Example 8, 1-(2-(4-fluorophenyl)thiazol-5-yl)-1-(pyridin-4-yl)ethanol]: the IC50 is below 50 nM. In the case of `CC(O)(c1ccncc1)c1nc(-c2ccc(F)cc2)no1` (single isomer, unassigned; (+)) [Example 36, (+)-1-(3-(4-fluoro-phenyl)-1,2,4-oxadiazol-5-yl)-1-(pyridin-4-yl)ethanol], the IC50 was below 50 nM. In the case of `CC(O)(c1ccncc1)c1cnc(-c2ccc(F)cc2)s1` (single isomer, unassigned) [Example 9, 1-(2-(4-fluorophenyl)thiazol-5-yl)-1-(pyridin-4-yl)ethanol] it was below 50 nM. In the case of `CC(O)(c1ccncc1)c1cnc(-c2ccc(F)cc2)s1` (racemic) [Example 7, 1-(2-(4-Fluorophenyl)thiazol-5-yl)-1-(pyridin-4-yl)ethanol] it was below 50 nM.

The compound `CC(O)(c1ccncc1)c1nc(-c2ccc(F)cc2)no1` (stereo not drawn) [Example 34, 1-(3-(4-Fluorophenyl)-1,2,4-oxadiazol-5-yl)-1-(pyridin-4-yl)ethanol] had an IC50 below 50 nM.

In turn, `COc1ccc(-c2ccc(C(C)(O)c3ccncc3)nc2)cc1` (single isomer, unassigned) [Example 2, 1-(5-(4-methoxyphenyl)-pyridin-2-yl)-1-(pyridin-4-yl)ethanol] registered an IC50 below 50 nM. In the case of `CCC(O)(c1ccncc1)c1cnc(-c2ccc(F)cc2)s1` (stereo not drawn) [Example 4, 1-(2-(4-fluorophenyl)-thiazol-5-yl)-1-(pyridin-4-yl)propan-1-ol] it was below 50 nM; in that of `COc1ccc(-c2ccc(C(C)(O)c3ccncc3)nc2)cc1` (racemic) [Example 1, 1-(5-(4-Methoxyphenyl)pyridin-2-yl)-1-(pyridin-4-yl)ethanol], below 50 nM.
